Source: US10434112B2, “Use of agonists of formyl peptide receptor 2 for treating dermatological diseases” (Allergan, Inc., priority 2013, dated 2019)

Each molecule was assayed against FPRL-1 (Homo sapiens (Human), UniProt P25090) (assay: FPRL-1 Ga16-CHO EC50 (efficacy)). Conditions: Table 1.
Assay type: cell-based

Chain of FPRL-1 (P25090 whole entry): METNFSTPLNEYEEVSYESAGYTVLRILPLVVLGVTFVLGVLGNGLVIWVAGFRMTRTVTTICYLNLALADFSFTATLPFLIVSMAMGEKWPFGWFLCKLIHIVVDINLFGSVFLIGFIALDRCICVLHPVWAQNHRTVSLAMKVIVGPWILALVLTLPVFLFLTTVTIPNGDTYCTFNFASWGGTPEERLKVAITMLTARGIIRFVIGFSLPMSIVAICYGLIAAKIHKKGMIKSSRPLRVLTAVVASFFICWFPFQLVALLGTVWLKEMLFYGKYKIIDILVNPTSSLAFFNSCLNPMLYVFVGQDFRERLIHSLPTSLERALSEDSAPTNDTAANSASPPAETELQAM

Work on `O=C(Nc1ccc(Br)cc1)NC(Cc1ccccc1)C(=O)O` (stereo in doubt) [(2S)-2-({[(4-bromophenyl)amino]carbonyl}amino)-3-phenylpropanoic acid] yielded an EC50 of 0.031 µM.

Same assay, conditions: Table 1; value in brackets

In order of rising “FPRL-1 Ga16-CHO (efficacy)” value:
1. O=C(Nc1ccc(Cl)c(Cl)c1)N[C@@H](Cc1ccccc1)C(=O)O [(2S)-2-({[(3,4-dichlorophenyl)amino]carbonyl}amino)-3-phenylpropanoic acid]  0.57
2. COc1ccc(NC(=O)NC(Cc2ccccc2)C(=O)O)cc1OC (stereo not drawn) [2-({[(3,4-dimethoxyphenyl)amino]carbonyl}amino)-3-phenylpropanoic acid]  0.72
3. O=C(Nc1ccc(OC(F)(F)F)cc1)NC(Cc1ccccc1)C(=O)O (stereo not drawn) [3-phenyl-2-[({[4-(trifluoromethoxy)phenyl]amino}carbonyl)amino]propanoic acid]  0.79
4. O=C(Nc1ccc(Br)cc1)NC(Cc1c[nH]c2ccccc12)C(=O)O (stereo not drawn) [2-({[(4-bromophenyl)amino]carbonyl}amino)-3-(1H-indol-3-yl)propanoic acid]  0.89
5. CC[C@H](C)[C@H](NC(=O)Nc1ccc(Br)cc1)C(=O)O [(2S,3S)-2-({[(4-bromophenyl)amino]carbonyl}amino)-3-methylpentanoic acid]  0.89
6. COc1ccc(NC(=O)N[C@@H](Cc2ccccc2)C(=O)O)cc1 [(2S)-2-({[(4-methoxyphenyl)amino]carbonyl}amino)-3-phenylpropanoic acid]  0.90
7. CC(C)[C@H](NC(=O)Nc1ccc(Br)cc1F)C(=O)O [(2S)-2-({[(4-bromo-2-fluorophenyl)amino]carbonyl}amino)-3-methylbutanoic acid]  0.91
8. CC(C)[C@H](NC(=O)Nc1ccc(Br)cc1)C(=O)O [(2S)-2-({[(4-bromophenyl)amino]carbonyl}amino)-3-methylbutanoic acid]  0.91
9. O=C(Nc1ccc(Br)cc1)N[C@H](C(=O)O)c1ccccc1 [(2S)-({[(4-bromophenyl)amino]carbonyl}amino) (phenyl)acetic acid]  0.94
10. O=C(Nc1ccc(C(F)(F)F)cc1)N[C@@H](Cc1ccccc1)C(=O)O [(2S)-3-phenyl-2-[({[4-(trifluoromethyl)phenyl]amino}carbonyl)amino]propanoic acid]  0.97
11. O=C(Nc1ccc(Br)cc1)N[C@H](Cc1ccccc1)C(=O)O [(2R)-2-({[(4- bromophenyl)amino]carbonyl}amino)- 3-phenylpro] [(2R)-2-({[(4-bromophenyl)amino]carbonyl}amino)-3-phenylpropanoic acid]  0.99
12. O=C(Nc1ccc(Br)cc1)NC(Cc1ccccc1)C(=O)O (stereo in doubt) [(2S)-2-({[(4- bromophenyl)amino]carbonyl}amino)- 3-phenylpro] [(2S)-2-({[(4-bromophenyl)amino]carbonyl}amino)-3-phenylpropanoic acid]  1.0
13. O=C(Nc1ccc(Cl)cc1)NC(Cc1ccccc1)C(=O)O (stereo not drawn) [2-({[(4-chlorophenyl)amino]carbonyl}amino)-3-phenylpropanoic acid]  1.0

Same assay, conditions: Table 2; value in brackets

In order of falling “FPRL-1 Ga16-CHO (efficacy)” value:
1. CC1(CCc2ccccc2)NC(=O)N(NC(=O)Nc2ccccc2)C1=O (stereo not drawn) [1-[4-methyl-2,5-dioxo-4-(2-phenylethyl)imidazolidin-1-yl]-3-phenylurea]  1.0
2. O=C(Nc1ccc(Cl)cc1)NN1C(=O)NC2(CCCCC2)C1=O [1-(4-chlorophenyl)-3-(2,4-dioxo-1,3-diazaspiro[4,5]decan-3-yl) urea]  0.98
3. CCC1(C)NC(=O)N(NC(=O)Nc2ccc(Cl)cc2)C1=O (stereo not drawn) [1-(4-chlorophenyl)-3-(4-ethyl-4-methyl-2,5-dioxoimidazolidin-1-yl)urea]  0.96
4. CC1(CCc2ccccc2)NC(=O)N(NC(=O)Nc2ccccc2F)C1=O (stereo not drawn) [1-(2-fluorophenyl)-3-[4-methyl-2,5-dioxo-4-(2-phenylethyl)imidazolidin-1-yl]urea]  0.94
5. Cc1ccc(NC(=O)NN2C(=O)NC3(CCC(C)CC3)C2=O)cc1 (stereo not drawn) [1-(8-methyl-2,4-dioxo-1,3-diazaspiro[4,5]decan-3-yl)-3-(p-tolyl)urea]  0.91

Same assay, conditions: Table 3; value in brackets

In order of falling “FPRL-1 Gal16-CHO (efficacy)” value:
1. O=C(CN1C(=O)C2CC=CCC2C1=O)Nc1ccc(Br)cc1 (stereo not drawn) [N-(4-bromophenyl)-1,3,3a,4,7,7a-hexahydro-1,3-dioxo-2H-isoindole-2-acetamide]  0.98
2. O=C(CN1C(=O)C2C3C=CC(C3)C2C1=O)Nc1ccc(Br)cc1 (stereo not drawn) [N-(4-bromophenyl)-1,3,3a,4,7,7a-hexahydro-1,3-dioxo-4,7-methano-2H-isoindole-2-acetamide]  0.90
3. O=C(CN1C(=O)NC2(CCCCC2)C1=O)Nc1ccc(Br)cc1 [N-(4-bromophenyl)-2-(2,4-dioxo-1,3-diazaspiro[4.5]dec-3-yl)acetamide]  0.89

The molecules below were run against human FPR2 receptor (Homo sapiens (Human), UniProt P25090) (assay: FLIPR Ca+2 response in HEK-Gα16 cells stably expressing the human FPR2 receptor). Conditions: Table 4; value in brackets, given mostly as fraction.
Chain of human FPR2 receptor (P25090 whole entry): as above
Assay type: cell-based
Set-up: FPR2 (% eff): unit not given here
How it was run: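 HEK-Gα16 cells stably expressing human FPR2, loaded with 2 μM Fluo-4 in HBSS/20 mM HEPES for 40 min at 37° C., then washed. Ligands added in HBSS/Hepes and Ca+2 responses recorded on FLIPR in relative fluorescence units.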

In order of falling “FPR2 (% eff)” value:
1. CCC1(CCc2ccccc2C(=O)O)NC(=O)N(NC(=O)Nc2ccc(Br)cc2)C1=O (stereo not drawn) [Compound 143, 2-[2-(1-{[(4-bromophenyl)carbamoyl]amino}-4-ethyl-2,5-dioxoimidazolidin-4-yl)ethyl]benzoic acid]  1.0
2. CC(C)C1(CC(=O)NCCC(=O)O)NC(=O)N(NC(=O)Nc2ccc(Br)cc2F)C1=O (stereo not drawn) [Compound 145, 3-({[1-{[(4-bromo-2-fluorophenyl)carbamoyl]amino}-2,5-dioxo-4-(propan-2-yl)imidazolidin-4-yl]acetyl}amino)propanoic acid]  1.0
3. CCC1(CCc2ccccc2C(=O)O)NC(=O)N(NC(=O)Nc2ccc(Br)cc2F)C1=O (stereo not drawn) [Compound 146, 2-[2-(1-{[(4-bromo-2-fluorophenyl)carbamoyl]amino}-4-ethyl-2,5-dioxoimidazolidin-4-yl)ethyl]benzoic acid]  1.0
4. CC(C)C1(CCc2ccccc2C(=O)O)NC(=O)N(NC(=O)Nc2ccc(Br)cc2)C1=O (stereo not drawn) [Compound 151, 2-{2-[1-{[(4-bromophenyl)carbamoyl]amino}-2,5-dioxo-4-(propan-2-yl)imidazolidin-4-yl]ethyl}benzoic acid]  1.0
5. CCOP(=O)(CCNC(=O)CC1(C(C)C)NC(=O)N(NC(=O)Nc2ccc(Br)cc2)C1=O)OCC (stereo not drawn) [Compound 152, diethyl [2-({[1-{[(4-bromophenyl)carbamoyl]amino}-2,5-dioxo-4-(propan-2-yl)imidazolidin-4-yl]acetyl}amino)ethyl] phosphonate]  1.0
6. CC(C)C[C@H](NC(=O)Nc1ccc(Br)cc1)C(=O)N(C)CC(=O)O [Compound 155, {[(2S)-2-{[(4-bromophenyl)carbamoyl]amino}-4-methylpentanoyl](methyl)amino}acetic acid]  1.0
7. CC(C)C1(CC(=O)NCCC(=O)O)NC(=O)N(NC(=O)Nc2ccc(Br)cc2)C1=O (stereo not drawn) [Compound 147, 3-({[1-{[(4-bromophenyl)carbamoyl]amino}-2,5-dioxo-4-(propan-2-yl)imidazolidin-4-yl]acetyl}amino)propanoic acid]  0.99
8. CCOC(=O)C1CCC2(CC1)NC(=O)N(NC(=O)Nc1ccc(Br)cc1)C2=O (stereo not drawn) [Compound 153, ethyl 3-{[(4-bromophenyl)carbamoyl]amino}-2,4-dioxo-1,3-diazaspiro[4.5]decane-8-carboxylate]  0.99
9. CC(C)C[C@H](NC(=O)Nc1ccc(C(F)(F)F)cc1)C(=O)NCS(=O)(=O)O [Compound 237, {[(2S)-4-methyl-2-({[4-(trifluoromethyl)phenyl]carbamoyl}amino)pentanoyl]amino}methanesulfonic acid]  0.99
10. CC(C)C1(CC(=O)NCCO)NC(=O)N(NC(=O)Nc2ccc(Br)cc2F)C1=O (stereo not drawn) [Compound 148, 2-[1-{[(4-bromo-2-fluorophenyl)carbamoyl]amino}-2,5-dioxo-4-(propan-2-yl)imidazolidin-4-yl]-N-(2-hydroxyethyl)acetamide]  0.98
11. CCOC(=O)CCC1(C(C)C)NC(=O)N(NC(=O)Nc2ccc(Br)cc2)C1=O (stereo not drawn) [Compound 149, ethyl 3-[1-{[(4-bromophenyl)carbamoyl]amino}-2,5-dioxo-4-(propan-2-yl)imidazolidin-4-yl]propanoate]  0.94
12. CC(C)C[C@H](NC(=O)Nc1ccc(C(F)(F)F)cc1)C(=O)NC(C)(C)C(=O)O [Compound 139, 2-methyl-2-{[(2S)-4-methyl-2-({[4-(trifluoromethyl)phenyl]carbamoyl}amino)pentanoyl]amino}propanoic acid]  0.92
13. CCC1(CCc2ccccc2C(=O)OC)NC(=O)N(NC(=O)Nc2ccc(Br)cc2)C1=O (stereo not drawn) [Compound 141, methyl 2-[2-(1-{[(4-bromophenyl)carbamoyl]amino}-4-ethyl-2,5-dioxoimidazolidin-4-yl)ethyl]benzoate]  0.92
14. CC(C)C1(CC(=O)NC(CO)CO)NC(=O)N(NC(=O)Nc2ccc(Br)cc2)C1=O (stereo not drawn) [Compound 142, 2-[1-{[(4-bromophenyl)carbamoyl]amino}-2,5-dioxo-4-(propan-2-yl)imidazolidin-4-yl]-N-(1,3-dihydroxypropan-2-yl)acetamide]  0.92
15. CCOP(=O)(CNC(=O)[C@H](CC(C)C)NC(=O)Nc1ccc(SC)cc1)OCC [Compound 138, diethyl ({[(2S)-4-methyl-2-({[4-(methylsulfanyl)phenyl]carbamoyl}amino)pentanoyl]amino}methyl)phosphonate]  0.91
16. CSCC[C@H](NC(=O)Nc1ccc(Br)cc1)C(=O)NCC(=O)O [Compound 144, {[(2S)-2-{[(4-bromophenyl)carbamoyl]amino}-4-(methylsulfanyl)butanoyl]amino}acetic acid]  0.91
17. CC(C)C[C@H](NC(=O)Nc1ccc(Br)cc1)C(=O)N(C)CC(=O)OC(C)(C)C [Compound 154, tert-butyl {[(2S)-2-{[(4-bromophenyl)carbamoyl]amino}-4-methylpentanoyl](methyl)amino}acetate]  0.85
